Assay results from US20110052678A1, “METHOD FOR TREATING AGE RELATED MACULAR DEGENERATION” (priority 2010, published 2011).

What was measured:
[1] = water; cited from earlier work
patients [2] = experiment: Clinical use of MSM ophthalmic drops by the inventor; format: in vivo, human
Text: We have used aqueous solutions of MSM filtered, sterilized, and mixed with insulin.

[3] = system: individuals with macular edema; details: fluorescein angiography; cited from earlier work
[4] = in vivo; cited from earlier work
[5] = after oral intake; cited from earlier work
patients [6] = details: supplementation; cited from earlier work
[7] = system: dry mouth and dry eyes conditions; experiment: Clinical use of ADT orally and as eye drops; format: in vivo; details: 25 mg orally and nanograms concentration in eye drops
Method: We have used ADT 25 mg orally and ADT in nanograms concentration in liquid ophthalmic eye drops with success in these conditions, especially, those on chemotherapy, menopausal women, and chronic smokers with dry mouth and dry eyes conditions. There is secretory dysfunction associated with RPE and Muller cells which are needed for proper functioning of the photoreceptors by removing ROS. This can be one of the important non toxic oral and eye drops for the treatment of age related macular degeneration (Ben-Mandi M H, Gozin A, Driss F, Andrieu V, Christen M O, Pasquier C. Anethole dithiolethione regulates oxidant-induced tyrosine kinase activation in endothelial cells. Antioxid Redox Signal. 2000 Winter, 2 (4):789-99). […] (Han S F, Yao T T, Zhang X X, Gan L, Zhu C, Yu H Z, Gan Y. Int J Pharm. Lipid-based formulations to enhance oral bioavailability of the poorly water-soluble drug anetholtrithione: effects of lipid composition and formulation. 2009 Sep. 8; 379(1):18-24. Epub 2009 Jun. 7.).

[8] = system: patients with neovascular ARMS; details: intravitreous 1.25 mg injections; cited from earlier work
photoreceptor cell = details: in vitro model; cited from earlier work
[9] = cited from earlier work
oxidized cells = details: H2O2 induced, insulin pretreatment; cited from earlier work
[10] = local application incl. conjunctival sac, scalp, gums, wounds
Text: The present invention formulations contain only 0.10 to 1.00 IU per drop which the dosage can be increased or the dosage can be decreased depending upon the disease states.

CS(C)(=O)=O [MSM, Methylsulfonylmethane]
solubility [1]: soluble in water
treatment outcome (patients [2]; aqueous MSM mixed with insulin as eye drops, ARMD, retinitis pigmentosa, cataract, dry eye, glaucoma): good results
patient-reported vision (patients [2]; ophthalmic drops, aged, Lyme disease and cancer patients): their vision had improved

CC(=O)Nc1nnc(S(N)(=O)=O)s1 [acetazolamide]
leakage of dye into the photoreceptor area [3]: inhibited

Insulin detemir
Peak action in hours [4]: 6 to 8 h

Insulin glargine
Peak action in hours [4]: 8 to 16 h

NPH (isophane): intermediate-acting NPH (isophane) insulin
Peak action in hours [4]: 6 to 10 h

Regular (soluble): short-acting regular (soluble) insulin
Peak action in hours [4]: 2 to 3 h

Vitamin A
time to peak blood concentration [5]: one
postponement of blindness (patients [6]): ~10 years

anethole dithiolethione [ADT]
treatment outcome [7]: success

bevacizumab
patients improved 10 or more letters [8]: more than 45%

brimonidine tartrate
photoreceptor cell degeneration (photoreceptor cell): prevent photoreceptor cell degeneration

hyaluronic acid
pH ([9]; 0.1% solution): 6.0-7.5
water contained relative to own weight ([9]; hydrated): up to 1,000 fold

insulin
lipid peroxidation (oxidized cells): significantly inhibited
change of blood sugar levels (hypoglycemic effect) [10]: did not change the blood sugar levels
